Data as given in patent US11034702B2, “Thienoisoquinolines and their derivatives for the treatment of cancer” (VALORBEC, SOCIÉTÉ EN COMMANDITE, priority 2016, dated 2021).
“Also recorded” adds a separate entry of the source.

How the values were obtained:
A549 cells = test: Mitotic spindle phenotype in A549 cells; assay type: cell-based, human; settings: A549, 300 nM, 6-8 hours
Experimental: FIG. 2A) is a line graph showing the percentage of HCT116 (p53−/−) cells, A549 cells, HeLa cells and H1299 cells in mitosis after treatment with various concentrations of C75 for one population doubling time. All of the cell lines show an increase in the proportion of mitotic cells after treatment with 200 nM C75. The bars indicate standard deviation. […] While the mitotic spindles were not dramatically altered by C75 in HFF1 cells, they were monopolar (as shown) or fragmented in the other cell types. […] The mitotic spindles were more strongly fragmented after C75 treatment in these cells vs. the cells in FIG. 2B). […] While mitotic spindles recovered bipolarity after removing nocodazole, they remained multipolar after removing C75. FIG. 2F) is a series of time-lapse images of a live HeLa cell expressing GFP:tubulin after treatment with C75 as shown in 2D) and 2E). The scale bar for all cells is 10 μm. FIG. 2G) is a schematic showing the putative target for C75. […]
C75 was also tested for efficacy in different cancer cell lines. […] To further assess the role of C75 in affecting centrosomes, HeLa cells were treated with C75 for a short period of time (5 minutes), then C75 was removed and the cells were analyzed for spindle phenotypes (schematic in FIG. 2D). […]

HeLa cells = test: Mitotic spindle / centrosome phenotype in HeLa cells (tubulin and DAPI staining, live imaging); assay type: cell-based, human
Experimental: There were more rounded mitotic cells after C75 treatment in comparison to the control. FIG. 1B) is a line graph showing the percentage of HeLa and HFF1 cells in mitosis after treatment with various concentrations of C75 for 8 hours. The bars indicate standard deviation. FIG. 1C) is a series of images showing cells that were fixed and co-stained for tubulin (microtubules) and DAPI (DNA). Treatment of HeLa cells with 300 nM C75 caused the mitotic spindles to be disorganized, while they were not affected in HFF1 cells. […] The scale bar for the cells is 10 μm. FIG. 1D) is a cartoon schematic showing the key features of a metaphase cell.
FIG. 2A) is a line graph showing the percentage of HCT116 (p53−/−) cells, A549 cells, HeLa cells and H1299 cells in mitosis after treatment with various concentrations of C75 for one population doubling time. All of the cell lines show an increase in the proportion of mitotic cells after treatment with 200 nM C75. The bars indicate standard deviation. […] While the mitotic spindles were not dramatically altered by C75 in HFF1 cells, they were monopolar (as shown) or fragmented in the other cell types. […] The mitotic spindles were more strongly fragmented after C75 treatment in these cells vs. the cells in FIG. 2B). […] While mitotic spindles recovered bipolarity after removing nocodazole, they remained multipolar after removing C75. FIG. 2F) is a series of time-lapse images of a live HeLa cell expressing GFP:tubulin after treatment with C75 as shown in 2D) and 2E). The scale bar for all cells is 10 μm. FIG. 2G) is a schematic showing the putative target for C75. Healthy cells have two centrosomes that separate and form a bipolar spindle, while cancer cells have aberrant centrosomes that cluster to form ‘pseudo’ bipolar spindles, and C75 may target this process and their integrity.
FIG. 3A) is a line graph showing the percentage of mitotic HeLa or HFF1 cells treated with a range of paclitaxel (Taxol™; tubulin-targeting drug) concentrations+/−C75 as indicated. The bars indicate standard deviation. FIG. 3B) is a series of bar graphs showing the proportion of HCT116 cells that have monopolar spindles, bipolar spindles with aligned chromosomes, bipolar spindles with misaligned chromosomes and multipolar/fragmented spindles after treatments as shown. Treatments include DMSO (control), varying concentrations of paclitaxel and/or varying concentrations of C75 after 7 hours. While treatment of HCT116 cells with 2.5 nM paclitaxel caused a threshold of mitotic spindle phenotypes, adding increasing concentrations of C75 in combination with 2.5 nM paclitaxel caused the phenotypes to progressively worsen. FIG. 3C) is bar graph showing the average distance between centrosome fragments in HCT116 cells after treatments as shown. While centrosome fragments moved closer together with increased concentrations of paclitaxel, they moved further apart with increased concentrations of C75. […] FIG. 3E) is a line graph showing the percentage of mitotic HeLa or HFF1 cells treated with a range of nocodazole concentrations+/−C75 as indicated. The bars indicate standard deviation. FIG. 3F) is a series of images showing fixed HeLa cells after treatment with C75+/− nocodazole co-stained for tubulin, γ-tubulin and DNA (DAPI). […] Adding nocodazole to cells treated with 300 nM C75 caused mitotic spindle phenotypes to worsen and appear more similar to those after treatment with 600 nM C75. The scale bar for all cells is 10 μm. FIG. 3G) is a bar graph showing the percentage of phenotypes observed for metaphase HeLa cells treated with nocodazole or C75, or both for 20 minutes (n>15 per treatment).
Spindle fragmentation only occurred after extensive microtubule depolymerization in colchicine-treated cells, while the spindle poles fragmented prior to changes in microtubules after C75 treatment. The scale bar for all cells is 10 μm.
C75 was further tested and found to cause mitotic arrest in HeLa cells. […]

HFF1 cells = test: Percentage of mitotic HFF1 cells with paclitaxel +/- C75; assay type: cell-based
Excerpt: FIG. 3A) is a line graph showing the percentage of mitotic HeLa or HFF1 cells treated with a range of paclitaxel (Taxol™; tubulin-targeting drug) concentrations+/−C75 as indicated. The bars indicate standard deviation. FIG. 3B) is a series of bar graphs showing the proportion of HCT116 cells that have monopolar spindles, bipolar spindles with aligned chromosomes, bipolar spindles with misaligned chromosomes and multipolar/fragmented spindles after treatments as shown. Treatments include DMSO (control), varying concentrations of paclitaxel and/or varying concentrations of C75 after 7 hours. While treatment of HCT116 cells with 2.5 nM paclitaxel caused a threshold of mitotic spindle phenotypes, adding increasing concentrations of C75 in combination with 2.5 nM paclitaxel caused the phenotypes to progressively worsen. FIG. 3C) is bar graph showing the average distance between centrosome fragments in HCT116 cells after treatments as shown. While centrosome fragments moved closer together with increased concentrations of paclitaxel, they moved further apart with increased concentrations of C75. […] FIG. 3E) is a line graph showing the percentage of mitotic HeLa or HFF1 cells treated with a range of nocodazole concentrations+/−C75 as indicated. The bars indicate standard deviation. […]

**Q.** Which results are given for `COc1ccc(S(=O)(=O)N2Cc3ccccc3-c3sc(Br)cc32)cc1` [Compound C75]?
**A.** mitotic spindle phenotype (A549 cells): most of the spindles were severely fragmented; mitotic spindle phenotype (HeLa cells; HeLa, 300 nM): spindle organization was perturbed; also recorded: most of the spindles were severely fragmented; mitotic spindle phenotype (HeLa cells; HeLa, 750 nM): Centrosomes were fragmented or declustered and microtubules were completely absent; also recorded: complete fragmentation of the mitotic spindles; spindle phenotype at lower concentrations (HeLa cells; HeLa, 8 hours, 30 nM colchicine or 300 nM C75): disrupted spindle poles; spindle phenotype at higher concentrations (HeLa cells; HeLa, 8 hours, 40 or 50 nM colchicine, 400 or 500 nM C75): spindle fragmentation prior to extensive loss of microtubules; time after exposure until centrosomes fragmented or declustered and microtubules collapsed (HeLa cells; live imaging, HeLa GFP:tubulin): 4 to 6 min; time until microtubule polymers grew again (HeLa cells; live imaging, HeLa, after wash-out, spindles tri- or multipolar): 20 to 30 min; spindle phenotype after drug wash-out (HeLa cells; metaphase HeLa, 5 minutes treatment, washed out, imaged after 40 minutes): tri- or multipolar spindles formed; spindle phenotype, drugs alone vs. together (HeLa cells; metaphase HeLa, nocodazole or C75 or both, 20 minutes): disorganized and/or fragmented mitotic spindles; effect of C75 on non-cancerous cells treated with paclitaxel (HFF1 cells): protective effect
